In brackets after ≈: the same amount, converted by molar mass. Read-outs that look alike come from different tables or passages of the source.
Experiments:
Test in all cases: Antibacterial effect (MIC), micro-liquid dilution method (CLSI)
Format in all cases: cell-based
E. coli ATCC BAA-2523 = settings: Escherichia coli, ATCCBAA2523
Protocol: (§1) Three strains Enterobacteriaceae E. coli ATCC 25922, E. coli ATCC BAA-2523, K. pneumonia ATCC BAA-1705 were used to determine the Minimum Inhibitory Concentration (MIC) of each compound by the micro-liquid dilution method according to the requirements of the Institute of Clinical and Laboratory Standard (CLSI). 2-fold series diluted compounds (with a final concentration range […]) were added to a round bottom 96-well plate (Catalog #3788, Corning). A single clone of fresh bacteria on the plate of Mueller Hinton II Agar (MHA, Cat. No. 211438, BD BBL™) after overnight culture was picked and suspended in sterile saline to adjust the concentration to 1×10^8 CFU/mL, and then diluted to 5×10^5 CFU/mL by Cation-Adjusted Mueller Hinton II Broth (MHB, Catalog #212332, BD BBL™), 100 μL of which was added to the round bottom 96-well plate containing the drug. The plate was inverted and incubated at 37° C. for 20-24 hours, and the MIC value was read. The lowest drug concentration that inhibits bacterial growth was defined as MIC.

E. coli ATCC 25922 = settings: Escherichia coli, ATCC25922
Protocol: as §1

[1] = system: K. pneumoniae ATCC BAA-1705; settings: Klebsiella pneumoniae, ATCCBAA1705
Protocol: as §1

MIC (E. coli ATCC BAA-2523; E. coli ATCC BAA-2523, 37° C., 20-24 hours, read-out: MIC) [µM]	MIC (E. coli ATCC 25922; E. coli ATCC 25922, 37° C., 20-24 hours, read-out: MIC) [µM]	MIC ([1]; K. pneumoniae ATCC BAA-1705, 37° C., 20-24 hours, read-out: MIC) [µM]	SMILES	MIC (E. coli ATCC BAA-2523) [µM]	MIC (E. coli ATCC 25922) [µM]	MIC [1] [µM]
4 (≈ 3.03 µg/mL)	2 (≈ 1.52 µg/mL)	4 (≈ 3.03 µg/mL)	CN[C@@H]1[C@@H](O)[C@@H](O[C@@H]2[C@@H](O)[C@H](O[C@H]3OC(CNCCOCCONC(=N)NCC(F)F)=CC[C@H]3N)[C@@H](N)C[C@H]2NC(=O)[C@@H](O)CCN)OC[C@]1(C)O [Compound 2]	–	–	–
–	–	–	CN[C@@H]1[C@@H](O)[C@@H](O[C@@H]2[C@@H](O)[C@H](O[C@H]3OC(CNCCCONC(=N)N)=CC[C@H]3N)[C@@H](N)C[C@H]2NC(=O)[C@@H](O)CCN)OC[C@]1(C)O [Compound 3]	1 (≈ 0.664 µg/mL)	0.5 (≈ 0.332 µg/mL)	0.25 (≈ 0.166 µg/mL)

Source: patent US12338263B2, “Antibacterial aminoglycoside derivatives” (priority 2019, dated 2025)
